# Where two headings read alike, the source gives them in different places.
# Key:
# [1] = tested on: mixture of Pseudomonas aeruginosa, Klebsiella pneumoniae, Staphylococcus aureus, and Bacillus subtilis; assay: Growth inhibition assay; assay type: cell-based; settings: 24 h; for inhibition at 0.19 µg/mL / inhibition at 0.39 µg/mL / inhibition at 0.78 µg/mL / inhibition at 1.56 µg/mL / inhibition at 3.13 µg/mL / inhibition at 6.25 µg/mL / inhibition at 12.5 µg/mL / inhibition at 25 µg/mL: read-out: % Inhibition of growth by DBMAL
# Excerpt: The growth inhibition assay used in the Examples measures inhibition of growth (or lack thereof) of a microbial consortium. Inhibition of growth can be the result of killing of the cells (so no growth occurs), killing of a significant portion of the populations of cells so that regrowth requires a prolonged time, or inhibition of growth without killing (stasis). Regardless of the mechanism of action, the impact of a biocide (or combination of biocides) can be measured over time on the basis of an increase in the size of the community.
# The assay measures the efficacy of one or more biocides at preventing growth of a consortium of bacteria in a dilute mineral salts medium. The medium contains (in mg/l) the following components: FeCl3.6H2O (1); CaCl2.2H2O (10); MgSO4.7H2O (22.5); (NH4)2SO4 (40); KH2PO4 (10); K2HPO4 (25.5); Yeast Extract (10); and glucose (100). After all components are added to deionized water, the pH of the medium is adjusted to 7.5. Following filter sterilization, aliquots are dispensed in 100 ul quantities to sterile microtiter plate wells. Dilutions of DBMAL and/or “Biocide B” are then added to the microtiter plate. After preparing the combinations of actives as illustrated below, each well is inoculated with 100 μl of a cell suspension containing ca. 1×10^6 cells per milliliter of a mixture of Pseudomonas aeruginosa, Klebsiella pneumoniae, Staphylococcus aureus, and Bacillus subtilis. The final total volume of medium in each well is 300 μl. […] The resulting matrix allows testing of eight concentrations of each active and 64 combinations of actives in the ratios (of actives).
# Controls (not shown) contain the medium with no biocide added. After preparing the combinations of actives as illustrated above, each well is inoculated with 100 μl of a cell suspension containing ca. 1×10^6 cells per milliliter of a mixture of Pseudomonas aeruginosa, Klebsiella pneumoniae, Staphylococcus aureus, and Bacillus subtilis. The final total volume of medium in each well is 300 μl.
# Immediately after the microtiter plates are prepared, the optical density (OD) readings for each well is measured at 580 nm and the plates are then incubated at 37° C. for 24 hr. After the incubation period, the plates are gently agitated before OD580 values are collected. The OD580 values at T0 are subtracted from T24 values to determine the total amount of growth (or lack thereof) that occurs. These values are used to calculate the percent inhibition of growth caused by the presence of each biocide and each of the 64 combinations. A 90% inhibition of growth is used as a threshold for calculating synergy index (SI) values with the following equation: Synergy Index=MDBMAL/CDBMAL+MB/CB
# where • CDBMAL: Concentration of DBMAL required to inhibit ˜90% of bacterial growth when used alone • CB: Concentration of biocide (B) required to inhibit ˜90% of bacterial growth when used alone. • MDBMAL: Concentration of DBMAL required to inhibit ˜90% of bacterial growth when used in combination with biocide (B). • MB: Concentration of biocide (B) required to inhibit ˜90% of bacterial growth when used in combination with DBMAL The SI values are interpreted as follows: • SI<1: Synergistic combination • SI=1: Additive combination • SI>1: Antagonistic combination
# [2] = tested on: mixture of Pseudomonas aeruginosa ATCC 10145 and Staphylococcus aureus ATCC 6538; assay: Kill assay (MBC, synergy index); assay type: cell-based; settings: 37° C., 2 hours
# Description: This assay is used as a preliminary evaluation of synergy between the actives. The procedure is as follows. A mineral salts solution (0.2203 g of CaCl2, 0.1847 g of MgSO4, and 0.2033 g of NaHCO3 in 1 L water, approximately pH 8) is inoculated with equal amounts (about 10^7 CFU/ml) of a mixture of Pseudomonas aeruginosa ATCC 10145 and Staphylococcus aureus ATCC 6538. Aliquots of the cell suspension are then treated with 2,2-dibromomalonamide (“DBMAL”), […], and their combinations at various concentration levels. […] The MBC values are then used to calculate a synergy index (SI) values.
# Summaries of the kill assay results are presented in the individual Examples. In each table, MBC values for each biocide and the blends tested are presented Likewise, the Synergy Index (“SI”) values for the combinations are listed. SI is calculated with the following equation: Synergy Index=Ca/CA+Mb/CB […]
compound,measurement,setting,value
"NC(=O)C(Br)(Br)C(N)=O [DBMAL, 2,2-dibromomalonamide]",inhibition at 0.19 µg/mL,"[1]; Table 3, DBMAL alone 0.19 mg/l",0%
same,inhibition at 0.39 µg/mL,"[1]; Table 3, DBMAL alone 0.39 mg/l",0%
same,inhibition at 0.78 µg/mL,"[1]; Table 3, DBMAL alone 0.78 mg/l",34%
same,inhibition at 1.56 µg/mL,"[1]; Table 3, DBMAL alone 1.56 mg/l",11%
same,inhibition at 3.13 µg/mL,"[1]; Table 3, DBMAL alone 3.13 mg/l",38%
same,inhibition at 6.25 µg/mL,"[1]; Table 3, DBMAL alone 6.25 mg/l",50%
same,inhibition at 12.5 µg/mL,"[1]; Table 3, DBMAL alone 12.5 mg/l",107%
same,inhibition at 25 µg/mL,"[1]; Table 3, DBMAL alone 25.0 mg/l",105%
same,inhibition at 0.19 µg/mL,"[1]; Table 6, DBMAL alone 0.19 mg/l",0%
same,inhibition at 0.39 µg/mL,"[1]; Table 6, DBMAL alone 0.39 mg/l",0%
same,inhibition at 0.78 µg/mL,"[1]; Table 6, DBMAL alone 0.78 mg/l",18%
same,inhibition at 1.56 µg/mL,"[1]; Table 6, DBMAL alone 1.56 mg/l",34%
same,inhibition at 3.13 µg/mL,"[1]; Table 6, DBMAL alone 3.13 mg/l",50%
same,inhibition at 6.25 µg/mL,"[1]; Table 6, DBMAL alone 6.25 mg/l",44%
same,inhibition at 12.5 µg/mL,"[1]; Table 6, DBMAL alone 12.5 mg/l",97%
same,inhibition at 25 µg/mL,"[1]; Table 6, DBMAL alone 25 mg/l",100%
same,inhibition at 0.19 µg/mL,"[1]; Table 8, DBMAL alone 0.19 mg/l",0%
same,inhibition at 0.39 µg/mL,"[1]; Table 8, DBMAL alone 0.39 mg/l",2%
same,inhibition at 0.78 µg/mL,"[1]; Table 8, DBMAL alone 0.78 mg/l",0%
same,inhibition at 1.56 µg/mL,"[1]; Table 8, DBMAL alone 1.56 mg/l",0%
same,inhibition at 3.13 µg/mL,"[1]; Table 8, DBMAL alone 3.13 mg/l",0%
same,inhibition at 6.25 µg/mL,"[1]; Table 8, DBMAL alone 6.25 mg/l",0%
same,inhibition at 12.5 µg/mL,"[1]; Table 8, DBMAL alone 12.5 mg/l",100%
same,inhibition at 25 µg/mL,"[1]; Table 8, DBMAL alone 25.0 mg/l",100%
same,inhibition at 0.19 µg/mL,"[1]; Table 10, DBMAL alone 0.19 mg/l",7%
same,inhibition at 0.39 µg/mL,"[1]; Table 10, DBMAL alone 0.39 mg/l",0%
same,inhibition at 0.78 µg/mL,"[1]; Table 10, DBMAL alone 0.78 mg/l",0%
same,inhibition at 1.56 µg/mL,"[1]; Table 10, DBMAL alone 1.56 mg/l",0%
same,inhibition at 3.13 µg/mL,"[1]; Table 10, DBMAL alone 3.13 mg/l",0%
same,inhibition at 6.25 µg/mL,"[1]; Table 10, DBMAL alone 6.25 mg/l",52%
same,inhibition at 12.5 µg/mL,"[1]; Table 10, DBMAL alone 12.5 mg/l",99%
same,inhibition at 25 µg/mL,"[1]; Table 10, DBMAL alone 25.0 mg/l",100%
same,inhibition at 0.19 µg/mL,"[1]; Table 12 (4,4-D), DBMAL alone 0.19 mg/l",0%
same,inhibition at 0.39 µg/mL,"[1]; Table 12 (4,4-D), DBMAL alone 0.39 mg/l",6%
same,inhibition at 0.78 µg/mL,"[1]; Table 12 (4,4-D), DBMAL alone 0.78 mg/l",0%
same,inhibition at 1.56 µg/mL,"[1]; Table 12 (4,4-D), DBMAL alone 1.56 mg/l",2%
same,inhibition at 3.13 µg/mL,"[1]; Table 12 (4,4-D), DBMAL alone 3.13 mg/l",0%
same,inhibition at 6.25 µg/mL,"[1]; Table 12 (4,4-D), DBMAL alone 6.25 mg/l",0%
same,inhibition at 12.5 µg/mL,"[1]; Table 12 (4,4-D), DBMAL alone 12.5 mg/l",100%
same,inhibition at 25 µg/mL,"[1]; Table 12 (4,4-D), DBMAL alone 25.0 mg/l",100%
same,inhibition at 0.19 µg/mL,"[1]; Table 12 (TEHT), DBMAL alone 0.19 mg/l",13%
same,inhibition at 0.39 µg/mL,"[1]; Table 12 (TEHT), DBMAL alone 0.39 mg/l",8%
same,inhibition at 0.78 µg/mL,"[1]; Table 12 (TEHT), DBMAL alone 0.78 mg/l",30%
same,inhibition at 1.56 µg/mL,"[1]; Table 12 (TEHT), DBMAL alone 1.56 mg/l",32%
same,inhibition at 3.13 µg/mL,"[1]; Table 12 (TEHT), DBMAL alone 3.13 mg/l",45%
same,inhibition at 6.25 µg/mL,"[1]; Table 12 (TEHT), DBMAL alone 6.25 mg/l",32%
same,inhibition at 12.5 µg/mL,"[1]; Table 12 (TEHT), DBMAL alone 12.5 mg/l",97%
same,inhibition at 25 µg/mL,"[1]; Table 12 (TEHT), DBMAL alone 25.0 mg/l",96%
same,concentration needed to provide at least 90% inhibition of growth,[1]; biocide alone,12.5 mg/L
same,"MBC (minimum biocide concentration needed to completely kill), biocide alone",[2],66.7 µg/mL

# — patent US8747873B2, “Compositions of dibromomalonamide and their use as biocides” (Dow Global Technologies LLC, priority 2012, dated 2014)
